Source: patent publication US20190375708A1 (VenatoRx Pharmaceuticals, Inc., priority 2018, published 2019)

Columns and labels:
[1] = system: HBV replication in HepAD38 cells; assay: Anti-HBV replication assay in HepAD38 cells (QPCR of extracellular HBV DNA); assay type: cell-based, HBV (genotype D, serotype ayw); details: Hepatitis B virus, 168 h, 7 days incubation, extracellular HBV DNA by QPCR, read-out: Anti-HBV EC50
Method in brief: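 Tet-off HepAD38, 7-day compound exposure ([…], 1 log10 steps, DMSO vehicle), 37 °C. Extracellular HBV DNA by QPCR, copies/mL via standard curve, % inhibition vs vehicle, EC50 by 4-parameter regression. Entecavir as positive control.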

[2] = In vitro cytotoxicity assay (MTT cell viability) in HepG2 cells; assay type: cell-based, human; details: human
Method in brief: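 HepG2 cells incubated 7 days at 37 °C, 5% CO2 with compounds from 30 μM to 1.0 nM (8 half-log dilutions). Viability read as MTT formazan absorbance at 492 nm, normalised to vehicle controls; CC50 from 4-parameter non-linear regression.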

Cc1cc(NC(=O)c2c(C)c(C(=O)C(=O)N[C@H](CO)C(C)(C)C)n(C)c2C)ccc1F [Example 67, (S)—N-(4-fluoro-3-methylphenyl)-5-(2-((1-hydroxy-3,3-dimethylbutan-2-yl)amino)-2-oxoacetyl)-1,2,4-trimethyl-1H-pyrrole-3-carboxamide]
EC50 [1]: < 50 nM | CC50 at 7 days [2]: > 30000 nM

Cc1cc(NC(=O)c2c(C)c(C(=O)C(=O)N[C@H](C(=O)O)C3CCCCC3)n(C)c2C)ccc1F [Example 68, (S)-2-cyclohexyl-2-(2-(4-((4-fluoro-3-methylphenyl)carbamoyl)-1,3,5-trimethyl-1H-pyrrol-2-yl)-2-oxoacetamido)acetic acid]
EC50 [1]: > 1000 nM | CC50 at 7 days [2]: > 30000 nM

Cc1cc(NC(=O)c2c(C)c(C(=O)C(=O)N[C@@H](C(=O)O)C3CCCCC3)n(C)c2C)ccc1F [Example 69, (R)-2-cyclohexyl-2-(2-(4-((4-fluoro-3-methylphenyl)carbamoyl)-1,3,5-trimethyl-1H-pyrrol-2-yl)-2-oxoacetamido)acetic acid]
EC50 [1]: 500 to 1000 nM | CC50 at 7 days [2]: > 30000 nM

Cc1cc(NC(=O)c2c(C)c(C(=O)C(=O)NOC(C)(C)C)n(C)c2C)ccc1F [Example 70, 5-(2-(tert-butoxyamino)-2-oxoacetyl)-N-(4-fluoro-3-methylphenyl)-1,2,4-trimethyl-1H-pyrrole-3-carboxamide]
EC50 [1]: < 50 nM | CC50 at 7 days [2]: > 30000 nM

Cc1cc(NC(=O)c2c(C)c(C(=O)C(=O)NC(C)(C)C)n(CCO)c2C)ccc1F [Example 71, 5-(2-(tert-butylamino)-2-oxoacetyl)-N-(4-fluoro-3-methylphenyl)-1-(2-hydroxyethyl)-2,4-dimethyl-1H-pyrrole-3-carboxamide]
EC50 [1]: > 1000 nM | CC50 at 7 days [2]: > 30000 nM

Cc1cc(NC(=O)c2c(C)c(C(=O)C(=O)NC(C)(C)C(N)=O)n(CCO)c2C)ccc1F [Example 72, 5-(2-((1-amino-2-methyl-1-oxopropan-2-yl)amino)-2-oxoacetyl)-N-(4-fluoro-3-methylphenyl)-1-(2-hydroxyethyl)-2,4-dimethyl-1H-pyrrole-3-carboxamide]
EC50 [1]: > 1000 nM | CC50 at 7 days [2]: > 30000 nM

Cc1cc(NC(=O)c2c(C)c(C(=O)C(=O)NC34CC5CC(CC(O)(C5)C3)C4)n(CCO)c2C)ccc1F [Example 73, N-(4-fluoro-3-methylphenyl)-5-(2-(((1r,3s,5R,7S)-3-hydroxyadamantan-1-yl)amino)-2-oxoacetyl)-1-(2-hydroxyethyl)-2,4-dimethyl-1H-pyrrole-3-carboxamide]
EC50 [1]: > 1000 nM | CC50 at 7 days [2]: > 30000 nM

Cc1cc(NC(=O)c2c(C)c(C(=O)C(=O)N[C@H]3CCc4nc(N)sc4C3)n(C)c2C)ccc1F [Example 75, (S)-5-(2-((2-amino-4,5,6,7-tetrahydrobenzo[d]thiazol-6-yl)amino)-2-oxoacetyl)-N-(4-fluoro-3-methylphenyl)-1,2,4-trimethyl-1H-pyrrole-3-carboxamide]
EC50 [1]: < 50 nM | CC50 at 7 days [2]: 5000 to 30000 nM

Cc1cc(NC(=O)c2c(C)c(C(=O)C(=O)N[C@@H]3CCc4nc(N)sc4C3)n(C)c2C)ccc1F [Example 76, (R)-5-(2-((2-amino-4,5,6,7-tetrahydrobenzo[d]thiazol-6-yl)amino)-2-oxoacetyl)-N-(4-fluoro-3-methylphenyl)-1,2,4-trimethyl-1H-pyrrole-3-carboxamide]
EC50 [1]: < 50 nM | CC50 at 7 days [2]: 5000 to 30000 nM

Cc1c(C(=O)Nc2ccc(F)nc2)c(C)n(C)c1C(=O)C(=O)NC1CCc2nc(N)sc2C1 (stereo not shown) [Example 77, 5-(2-((2-amino-4,5,6,7-tetrahydrobenzo[d]thiazol-6-yl)amino)-2-oxoacetyl)-N-(6-fluoropyridin-3-yl)-1,2,4-trimethyl-1H-pyrrole-3-carboxamide]
EC50 [1]: 50 to 499 nM | CC50 at 7 days [2]: > 30000 nM

Cc1cc(NC(=O)c2c(C)c(C(=O)C(=O)N[C@@H](CO)C(C)(C)C)n(C)c2C)ccc1F [Example 78, (R)—N-(4-fluoro-3-methylphenyl)-5-(2-((1-hydroxy-3,3-dimethylbutan-2-yl)amino)-2-oxoacetyl)-1,2,4-trimethyl-1H-pyrrole-3-carboxamide]
EC50 [1]: < 50 nM | CC50 at 7 days [2]: > 30000 nM

Cc1cc(NC(=O)c2c(C)c(C(=O)C(=O)NC(C)c3nn[nH]n3)n(C)c2C)ccc1F (stereo not shown) [Example 79, 5-(2-((1-(2H-tetrazol-5-yl)ethyl)amino)-2-oxoacetyl)-N-(4-fluoro-3-methylphenyl)-1,2,4-trimethyl-1H-pyrrole-3-carboxamide]
EC50 [1]: 50 to 499 nM | CC50 at 7 days [2]: > 30000 nM

Cc1cc(NC(=O)c2c(C)c(C(=O)C(=O)NC(CC(C)C)c3nn[nH]n3)n(C)c2C)ccc1F (stereo not shown) [Example 80, N-(4-fluoro-3-methylphenyl)-1,2,4-trimethyl-5-(2-((3-methyl-1-(2H-tetrazol-5-yl)butyl)amino)-2-oxoacetyl)-1H-pyrrole-3-carboxamide]
EC50 [1]: 50 to 499 nM | CC50 at 7 days [2]: > 30000 nM

Cc1noc(C(NC(=O)C(=O)c2c(C)c(C(=O)Nc3ccc(F)c(C)c3)c(C)n2C)C(C)C)n1 (stereo not shown) [Example 81, N-(4-fluoro-3-methylphenyl)-1,2,4-trimethyl-5-(2-((2-methyl-1-(3-methyl-1,2,4-oxadiazol-5-yl)propyl)amino)-2-oxoacetyl)-1H-pyrrole-3-carboxamide]
EC50 [1]: < 50 nM | CC50 at 7 days [2]: > 30000 nM

Cc1noc(C(C)NC(=O)C(=O)c2c(C)c(C(=O)Nc3ccc(F)c(C)c3)c(C)n2C)n1 (stereo not shown) [Example 82, N-(4-fluoro-3-methylphenyl)-1,2,4-trimethyl-5-(2-((1-(3-methyl-1,2,4-oxadiazol-5-yl)ethyl)amino)-2-oxoacetyl)-1H-pyrrole-3-carboxamide]
EC50 [1]: < 50 nM | CC50 at 7 days [2]: > 30000 nM

Cc1cnc(C(NC(=O)C(=O)c2c(C)c(C(=O)Nc3ccc(F)c(C)c3)c(C)n2C)C2CC2)s1 (stereo not shown) [Example 83, 5-(2-((cyclopropyl(5-methylthiazol-2-yl)methyl)amino)-2-oxoacetyl)-N-(4-fluoro-3-methylphenyl)-1,2,4-trimethyl-1H-pyrrole-3-carboxamide]
EC50 [1]: < 50 nM | CC50 at 7 days [2]: 5000 to 30000 nM

Cc1cnc(C(C)(C)NC(=O)C(=O)c2c(C)c(C(=O)Nc3ccc(F)c(C)c3)c(C)n2C)s1 [Example 84, N-(4-fluoro-3-methylphenyl)-1,2,4-trimethyl-5-(2-((2-(5-methylthiazol-2-yl)propan-2-yl)amino)-2-oxoacetyl)-1H-pyrrole-3-carboxamide]
EC50 [1]: < 50 nM | CC50 at 7 days [2]: > 30000 nM

Cc1noc(C(NC(=O)C(=O)c2c(C)c(C(=O)Nc3ccc(F)c(C)c3)c(C)n2C)C2CCOCC2)n1 (stereo not shown) [Example 85, N-(4-fluoro-3-methylphenyl)-1,2,4-trimethyl-5-(2-(((3-methyl-1,2,4-oxadiazol-5-yl)(tetrahydro-2H-pyran-4-yl)methyl)amino)-2-oxoacetyl)-1H-pyrrole-3-carboxamide]
EC50 [1]: < 50 nM | CC50 at 7 days [2]: > 30000 nM

Cc1cc(NC(=O)c2c(C)c(C(=O)C(=O)N[C@@H](C(=O)NCCO)C(C)(C)C)n(C)c2C)ccc1F [Example 86, (R)-N-(4-fluoro-3-methylphenyl)-5-(2-((1-((2-hydroxyethyl)amino)-3,3-dimethyl-1-oxobutan-2-yl)amino)-2-oxoacteyl)-1,2,4-trimethyl-1H-pyrrole-3-carboxamide]
EC50 [1]: < 50 nM | CC50 at 7 days [2]: 5000 to 30000 nM

Cc1cc(NC(=O)c2c(C)c(C(=O)C(=O)N[C@@H](C(=O)NCC(C)(C)O)C(C)(C)C)n(C)c2C)ccc1F [Example 87, (R)-N-(4-fluoro-3-methylphenyl)-5-(2-((1-((2-hydroxy-2-methylpropyl)amino)-3,3-dimethyl-1-oxobutan-2-yl)amino)-2-oxoacetyl)-1,2,4-trimethyl-1H-pyrrole-3-carboxamide]
EC50 [1]: < 50 nM | CC50 at 7 days [2]: > 30000 nM

Cc1cc(NC(=O)c2c(C)c(C(=O)C(=O)N[C@@H](C)C(C)(C)C)n(C)c2C)ccc1F [Example 88, (S)-5-(2-((3,3-dimethylbutan-2-yl)amino)-2-oxoacetyl)-N-(4-fluoro-3-methylphenyl)-1,2,4-trimethyl-1H-pyrrole-3-carboxamide]
EC50 [1]: < 50 nM | CC50 at 7 days [2]: 5000 to 30000 nM

Cc1c(C(=O)Nc2ccnc(F)c2)c(C)n(C)c1C(=O)C(=O)NC(C)(C)C [Example 89, 5-(2-(tert-butylamino)-2-oxoacetyl)-N-(2-fluoropyridin-4-yl)-1,2,4-trimethyl-1H-pyrrole-3-carboxamide]
EC50 [1]: < 50 nM | CC50 at 7 days [2]: > 30000 nM

Cc1c(C(=O)Nc2ccnc(F)c2)c(C)n(C)c1C(=O)C(=O)NC12CC3CC(CC1C3)C2 [Example 90, N-(2-fluoropyridin-4-yl)-5-(2-(((2R,3as,5S,6as)-hexahydro-2,5-methanopentalen-3a(1H)-yl)amino)-2-oxoacetyl)-1,2,4-trimethyl-1H-pyrrole-3-carboxamide]
EC50 [1]: < 50 nM | CC50 at 7 days [2]: 5000 to 30000 nM

Cc1c(C(=O)Nc2ccc(F)nc2)c(C)n(C)c1C(=O)C(=O)NC1C2CC3CC(C2)CC1C3 (stereo not shown) [Example 91, 5-(2-(((1r,3r)-adamantan-2-yl)amino)-2-oxoacetyl)-N-(6-fluoropyridin-3-yl)-1,2,4-trimethyl-1H-pyrrole-3-carboxamide]
EC50 [1]: < 50 nM | CC50 at 7 days [2]: > 30000 nM

Cc1c(C(=O)Nc2ccc(F)nc2)c(C)n(C)c1C(=O)C(=O)N[C@H]1C2CC3CC1C[C@](O)(C3)C2 [Example 92, N-(6-fluoropyridin-3-yl)-5-(2-(((1R,2s,3S,5s,7s)-5-hydroxyadamantan-2-yl)amino)-2-oxoacetyl)-1,2,4-trimethyl-1H-pyrrole-3-carboxamide]
EC50 [1]: 50 to 499 nM | CC50 at 7 days [2]: > 30000 nM

Cc1c(C(=O)Nc2ccc(F)nc2)c(C)n(C)c1C(=O)C(=O)NC1(C(N)=O)CCCCC1 [Example 93, 5-(2-((1-carbamoylcyclohexyl)amino)-2-oxoacetyl)-N-(6-fluoropyridin-3-yl)-1,2,4-trimethyl-1H-pyrrole-3-carboxamide]
EC50 [1]: 50 to 499 nM | CC50 at 7 days [2]: > 30000 nM
